Experimental findings from EP0726257A1, “1-(Hetero)Arylvinyl-5H-2,3-benzodiazepine derivatives useful for the treatment of central nervous system disorders, and benzopyrylium intermediates for their preparation” (EGIS GYOGYSZERGYAR RT., priority 1995, dated 1996) are described below.

Series [1] has as its target homophthalazine binding site. Kind of series: Displacement of 3H-girisopam from the homophthalazine binding site in rat brain striatal membrane preparation. The conditions noted are these: displacing 5 nM 3H-girisopam. How it is done:
Ki values were calculated according to the following equation: Ki = IC50 :(1 +([L])/(KD)), [formula] wherein KD is the dissociation constant of the labelled ligand-receptor complex, [L] is the concentration of the labelled ligand and IC50 is the half maximal inhibitory concentration of the test compound.
(Loss of bound radioactivity is the signal in a displacement assay; it reports binding, not function.)

Series [2] has as its system mice. Description: Acute toxicity (dead/treated animals) in the Irwin test. The class given is in vivo. The protocol:
(§1) The behavioural effects of 1-[2'-(substituted) vinyl]-5H-2,3-benzodiazepine derivatives according to the invention and of reference substances were measured according to the method of Irwin (Psychopharmacology, 13, 222 [1968]). The results and the acute toxicity data (dead/treated animals, shown in brackets) can be seen in the following Table II
(§2) From the above Table II it can be taken that the 1-[2'-(substituted) vinyl]-5H-2,3-benzodiazepine derivatives according to the invention considerably decrease the spontaneous motor activity (SMA) in mice after intraperitoneal or oral administration.

In series [3] the test system is spontaneous motor activity (SMA) in mice. Description: Behavioural effects according to Irwin (decrease in spontaneous motor activity). Also noted: key: ++ strong; + moderate; +- slight decrease in spon-taneous motor activity [SMA]. The class given is in vivo. How it is done: as §1, §2

Turning to `COc1cc2c(cc1OC)C(C=Cc1ccccc1)=NN=C(C)C2` [Example 33], the affinity in series [1] corresponds to a Ki of 12 nM.
Same read-out and setting: for `COc1cc2c(cc1OC)C(C=Cc1ccccc1OC(C)C)=NN=C(C)C2` [Example 18] the value was 18 nM.
In the case of `COc1cc(OC)c(C=CC2=NN=C(C)Cc3cc(OC)c(OC)cc32)c(OC)c1` [Example 58], the “acute toxicity (dead/treated animals)” value in series [2] (300 mg/kg i.p.) and in series [2] (1000 mg/kg p.o.) was 0/5 throughout. In addition, the Ki (as a rule, the equilibrium dissociation constant of an inhibitor or competing ligand from its target) in series [1] is 19 nM. In addition, the Behaviour result in series [3] (300 mg/kg i.p.) is on record as “+”; in series [3] (1000 mg/kg p.o.) it was “+ +”.
`COc1cc2c(cc1OC)C(C=Cc1ccc(Cl)c(NC(C)=O)c1)=NN=C(C)C2` [Example 85, 1-[3'-(Acetylamino)-4-(chloro)-styryl]-4-[methyl]-7,8-di-[methoxy]-5H-2,3-benzodiazepine]: the “acute toxicity (dead/treated animals)” value in series [2] (300 mg/kg i.p.) and in series [2] (1000 mg/kg p.o.) was 0/5 throughout. Besides, in series [1], the Ki amounted to 14 nM. Further, the Behaviour entry in series [3] (300 mg/kg i.p.) is “+-”; in series [3] (1000 mg/kg p.o.) it was “+”.
The compound `COc1cc2c(cc1OC)C(C=Cc1ccc(C(F)(F)F)cc1)=NN=C(C)C2` [Example 45] came in with a Ki in series [1] of 15 nM.
As to `COc1cc2c(cc1OC)C(C=Cc1ccc(F)cc1)=NN=C(C)C2` [Example 28], the Ki in series [1] turned out to be 12 nM.
Regarding `COc1cc2c(cc1OC)C(C=Cc1cccc(N)c1)=NN=C(C)C2` [Example 74], the inhibition constant Ki in series [1] turned out to be 14 nM.
Consider `COc1cc2c(cc1OC)C(C=Cc1ccccc1Cl)=NN=C(C)C2` [Example 54], for which the “acute toxicity (dead/treated animals)” value in series [2] (300 mg/kg i.p.) and in series [2] (1000 mg/kg p.o.) was 2/5 each time. The Behaviour result in series [3] (300 mg/kg i.p.) and in series [3] (1000 mg/kg p.o.) was “+” throughout.
Consider `COc1ccc(C=CC2=NN=C(C)Cc3cc(OC)c(OC)cc32)cc1Cl` [Example 55], for which the Ki in series [1] is 11 nM.
As for `COc1cc2c(cc1OC)C(C=Cc1ccc(OC)c(C(C)C)c1)=NN=C(C)C2` [Example 40], the “acute toxicity (dead/treated animals)” value is given as 0/5 in series [2] (300 mg/kg i.p.) and 4/5 in series [2] (1000 mg/kg p.o.). Besides, the Behaviour entry in series [3] (300 mg/kg i.p.) and in series [3] (1000 mg/kg p.o.) was “+ +” each time.
Take `COc1cc2c(cc1OC)C(C=Cc1ccc(OC(C)C)cc1)=NN=C(C)C2` [Example 15]: the Ki in series [1] worked out at 13 nM.
In turn, `COc1cc2c(cc1OC)C(C=Cc1c[nH]c3ccccc13)=NN=C(C)C2` [Example 71] displayed a Ki in series [1] of 5 nM.
With `COc1ccc(C=CC2=NN=C(C)Cc3cc(OC)c(OC)cc32)cc1` [Example 9], in series [1], affinity was put at a Ki of 18 nM.
Take `CCC1C(C)=NN=C(C=Cc2ccc(N(C)C)cc2)c2cc(OC)c(OC)cc21` (stereo not shown) [Example 37]: the “acute toxicity (dead/treated animals)” value is given as 0/5 in series [2] (300 mg/kg i.p.) and 4/5 in series [2] (1000 mg/kg p.o.). The Behaviour entry in series [3] (300 mg/kg i.p.) and in series [3] (1000 mg/kg p.o.) was “+ +” throughout.
`COc1ccc(C=CC2=NN=C(C)Cc3cc(OC)c(OC)cc32)cc1C` [Example 14] came in with a Ki in series [1] of 16 nM.
As to `COc1cc2c(cc1OC)C(C=Cc1ccc(Cl)c(N)c1)=NN=C(C)C2` [Example 77], the “acute toxicity (dead/treated animals)” value in series [2] (300 mg/kg i.p.) and in series [2] (1000 mg/kg p.o.) was 0/5 each time. The compound further showed a Ki in series [1] of 10 nM. Also, the Behaviour entry in series [3] (300 mg/kg i.p.) and in series [3] (1000 mg/kg p.o.) was “+ +” throughout.
In the case of `COc1cc2c(cc1OC)C(C=Cc1ccccc1Br)=NN=C(C)C2` [Example 36], the affinity in series [1] corresponds to a Ki of 10 nM.
Regarding `CCC1C(C)=NN=C(C=Cc2ccc(OC)c(OC)c2)c2cc(OC)c(OC)cc21` (stereo not shown) [Example 64], the “acute toxicity (dead/treated animals)” value in series [2] (300 mg/kg i.p.) and in series [2] (1000 mg/kg p.o.) was 0/5 in each case. Also, the values for the Behaviour result in series [3] (300 mg/kg i.p.) and in series [3] (1000 mg/kg p.o.) were “+” and “+-”, respectively.
`COc1cc2c(cc1OC)C(C=Cc1ccc([N+](=O)[O-])cc1)=NN=C(C)C2` [Example 12] returned a Ki in series [1] of 17 nM.
With `COc1cc2c(cc1OC)C(C=Cc1cccc(OC(C)C)c1)=NN=C(C)C2` [Example 16], in series [1], the inhibitory constant (Ki) came to 11 nM.
In turn, `CCCc1cc(C=CC2=NN=C(C)Cc3cc(OC)c(OC)cc32)ccc1OC` [Example 41] came in with an inhibitory constant (Ki) in series [1] of 16 nM.
The same measure, in the same setting: for `COc1cc(OC)c(OC)cc1C=CC1=NN=C(C)Cc2cc(OC)c(OC)cc21` [Example 59] the value was 16 nM.
